# According to US8003649B2 (AstraZeneca AB, priority 2007, dated 2011):
# Target: T1, Androgen Receptor (AR) (Homo sapiens, UniProt P10275, T878A)
# T1 construct: cell based immuno-fluorescence assay using the LNCaP prostate epithelial cell line; endogenous in cells; host or cells: LNCaP clone FGC (ATCC CRL-1740)
# T1 sequence (P10275 1-920 T878A): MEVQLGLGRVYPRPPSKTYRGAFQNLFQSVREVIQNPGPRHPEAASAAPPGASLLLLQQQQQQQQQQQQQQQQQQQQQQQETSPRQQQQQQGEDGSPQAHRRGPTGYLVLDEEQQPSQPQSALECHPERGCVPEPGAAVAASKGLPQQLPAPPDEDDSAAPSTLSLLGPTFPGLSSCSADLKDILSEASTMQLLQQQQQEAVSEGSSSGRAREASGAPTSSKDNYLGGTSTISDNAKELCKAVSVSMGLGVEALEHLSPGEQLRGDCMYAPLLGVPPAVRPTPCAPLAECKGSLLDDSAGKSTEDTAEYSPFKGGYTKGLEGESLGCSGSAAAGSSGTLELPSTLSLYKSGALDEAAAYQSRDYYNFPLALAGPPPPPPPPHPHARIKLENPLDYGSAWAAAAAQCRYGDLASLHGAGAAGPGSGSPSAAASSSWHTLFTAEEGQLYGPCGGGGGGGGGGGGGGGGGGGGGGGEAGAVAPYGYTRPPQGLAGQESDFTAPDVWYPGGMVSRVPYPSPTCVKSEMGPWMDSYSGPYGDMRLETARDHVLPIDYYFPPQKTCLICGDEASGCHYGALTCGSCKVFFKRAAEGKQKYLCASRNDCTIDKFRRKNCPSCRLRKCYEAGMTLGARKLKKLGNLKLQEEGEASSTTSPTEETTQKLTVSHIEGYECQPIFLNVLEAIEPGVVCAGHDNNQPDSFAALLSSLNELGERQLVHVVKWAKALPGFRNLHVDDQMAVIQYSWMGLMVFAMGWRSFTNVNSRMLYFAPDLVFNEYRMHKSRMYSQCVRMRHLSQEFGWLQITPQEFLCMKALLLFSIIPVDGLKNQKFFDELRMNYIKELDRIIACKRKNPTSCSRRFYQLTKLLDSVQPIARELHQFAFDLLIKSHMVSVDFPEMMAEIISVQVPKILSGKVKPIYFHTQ
# Experiment: LNCaP Androgen Receptor Down-regulation Cell Assay (immunofluorescence end point)
# Type: cell-based
# Conditions: LNCaP prostate carcinoma cells, compound incubation 20-22 hours, 50% reduction of the AR signal; read-out: Androgen Receptor Down-regulation Assay (a) IC50/μM
# Summary of the method: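 LNCaP cells in medium with 5% charcoal-stripped FBS were plated overnight, then treated with a compound dilution series for 20-22 h at 37° C. After fixation, permeabilisation and immunostaining, AR-associated green fluorescence was quantified by laser-scanning microplate cytometry; AR down-regulation expressed as IC50 from fitted dose-response curves.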
row,SMILES,DC50 [µM]
1,"Cn1cncc1CN1CCN(c2ccc3nnc(C(F)(F)F)n3n2)CC1 [Example 89, 6-[4-[(3-methylimidazol-4-yl)methyl]piperazin-1-yl]-3-(trifluoromethyl)-[1,2,4]triazolo[4,3-b]pyridazine]",23
2,"FC(F)(F)c1nnc2ccc(N3CCN(Cc4ccoc4)CC3)nn12 [Example 90, 6-[4-(furan-3-ylmethyl)piperazin-1-yl]-3-(trifluoromethyl)-[1,2,4]triazolo[4,3-b]pyridazine]",3.2
3,"FC(F)(F)c1nnc2ccc(N3CCN(Cc4c[nH]c5ccccc45)CC3)nn12 [Example 94, 6-[4-(1H-indol-3-ylmethyl)piperazin-1-yl]-3-(trifluoromethyl)-[1,2,4]triazolo[4,3-b]pyridazine]",0.93
4,"FC(F)(F)c1cccc(CN2CCN(c3ccc4nnc(C(F)(F)F)n4n3)CC2)c1 [Example 95, 3-(trifluoromethyl)-6-[4-[[3-(trifluoromethyl)phenyl]methyl]piperazin-1-yl]-[1,2,4]triazolo[4,3-b]pyridazine]",0.67
5,"Fc1cccc(CN2CCN(c3ccc4nnc(C(F)(F)F)n4n3)CC2)c1 [Example 96, 6-[4-[(3-fluorophenyl)methyl]piperazin-1-yl]-3-(trifluoromethyl)-[1,2,4]triazolo[4,3-b]pyridazine]",> 1.3
6,"FC(F)(F)c1nnc2ccc(N3CCN(Cc4cccc(Cl)c4)CC3)nn12 [Example 97, 6-[4-[(3-chlorophenyl)methyl]piperazin-1-yl]-3-(trifluoromethyl)-[1,2,4]triazolo[4,3-b]pyridazine]",0.36
7,"Cc1cc(CN2CCN(c3ccc4nnc(C(F)(F)F)n4n3)CC2)oc1C [Example 98, 6-[4-[(4,5-dimethylfuran-2-yl)methyl]piperazin-1-yl]-3-(trifluoromethyl)-[1,2,4]triazolo[4,3-b]pyridazine]",2.3
8,"FC(F)(F)c1nnc2ccc(N3CCN(CC4CCCCC4)CC3)nn12 [Example 99, 6-[4-(cyclohexylmethyl)piperazin-1-yl]-3-(trifluoromethyl)-[1,2,4]triazolo[4,3-b]pyridazine]",2.9
9,"FC1(F)Oc2ccc(CN3CCN(c4ccc5nnc(C(F)(F)F)n5n4)CC3)cc2O1 [Example 100, 6-[4-[(2,2-difluoro-1,3-benzodioxol-5-yl)methyl]piperazin-1-yl]-3-(trifluoromethyl)-[1,2,4]triazolo[4,3-b]pyridazine]",1.8
10,"FC(F)(F)c1nnc2ccc(N3CCN(Cc4cc5ccccc5[nH]4)CC3)nn12 [Example 101, 6-[4-(1H-indol-2-ylmethyl)piperazin-1-yl]-3-(trifluoromethyl)-[1,2,4]triazolo[4,3-b]pyridazine]",1.7
11,"FC(F)(F)c1nnc2ccc(N3CCN(Cc4cccc5c4OCO5)CC3)nn12 [Example 102, 6-[4-(1,3-benzodioxol-4-ylmethyl)piperazin-1-yl]-3-(trifluoromethyl)-[1,2,4]triazolo[4,3-b]pyridazine]",2.9
12,"FC(F)(F)c1nnc2ccc(N3CCN(Cc4cccc5nccnc45)CC3)nn12 [Example 103, 5-[[4-[3-(trifluoromethyl)[1,2,4]triazolo[4,3-b]pyridazin-6-yl]piperazin-1-yl]methyl]quinoxaline]",6.2
13,"FC(F)(F)c1nnc2ccc(N3CCN(Cc4cc[nH]c4)CC3)nn12 [Example 104, 6-[4-(1H-pyrrol-3-ylmethyl)piperazin-1-yl]-3-(trifluoromethyl)-[1,2,4]triazolo[4,3-b]pyridazine]",9.5
14,"Cc1ccc(Oc2cccc(CN3CCN(c4ccc5nnc(C(F)(F)F)n5n4)CC3)c2)cc1 [Example 105, 6-[4-[[3-(4-methylphenoxy)phenyl]methyl]piperazin-1-yl]-3-(trifluoromethyl)-[1,2,4]triazolo[4,3-b]pyridazine]",3.2
15,"CN(C)c1ccc(CN2CCN(c3ccc4nnc(C(F)(F)F)n4n3)CC2)cc1 [Example 106, N,N-dimethyl-4-[[4-[3-(trifluoromethyl)-[1,2,4]triazolo[4,3-b]pyridazin-6-yl]piperazin-1-yl]methyl]aniline]",4.4
16,"CC(=O)Nc1ccc(CN2CCN(c3ccc4nnc(C(F)(F)F)n4n3)CC2)cc1 [Example 107, N-[4-[[4-[3-(trifluoromethyl)-[1,2,4]triazolo[4,3-b]pyridazin-6-yl]piperazin-1-yl]methyl]phenyl]acetamide]",7.2
17,"CCOc1ccc(CN2CCN(c3ccc4nnc(C(F)(F)F)n4n3)CC2)cc1 [Example 108, 6-[4-[(4-ethoxyphenyl)methyl]piperazin-1-yl]-3-(trifluoromethyl)-[1,2,4]triazolo[4,3-b]pyridazine]",2.3
18,"CCCCOc1ccc(CN2CCN(c3ccc4nnc(C(F)(F)F)n4n3)CC2)cc1 [Example 109, 6-[4-[(4-butoxyphenyl)methyl]piperazin-1-yl]-3-(trifluoromethyl)-[1,2,4]triazolo[4,3-b]pyridazine]",7.2
19,"O=[N+]([O-])c1ccc(CN2CCN(c3ccc4nnc(C(F)(F)F)n4n3)CC2)cc1 [Example 111, 6-[4-[(4-nitrophenyl)methyl]piperazin-1-yl]-3-(trifluoromethyl)-[1,2,4]triazolo[4,3-b]pyridazine]",0.77
20,"CN(C)CCCOc1ccc(CN2CCN(c3ccc4nnc(C(F)(F)F)n4n3)CC2)cc1 [Example 112, N,N-dimethyl-3-[4-[[4-[3-(trifluoromethyl)-[1,2,4]triazolo[4,3-b]pyridazin-6-yl]piperazin-1-yl]methyl]phenoxy]propan-1-amine]",4.7
21,"FC(F)(F)c1nnc2ccc(N3CCN(Cc4ccc(N5CCCC5)cc4)CC3)nn12 [Example 113, 6-[4-[(4-pyrrolidin-1-ylphenyl)methyl]piperazin-1-yl]-3-(trifluoromethyl)-[1,2,4]triazolo[4,3-b]pyridazine]",7.1
22,"CC(C)(C)Oc1ccc(CN2CCN(c3ccc4nnc(C(F)(F)F)n4n3)CC2)cc1 [Example 114, 6-[4-[[4-[(2-methylpropan-2-yl)oxy]phenyl]methyl]piperazin-1-yl]-3-(trifluoromethyl)-[1,2,4]triazolo[4,3-b]pyridazine]",6.5
23,"CC(C)Oc1ccc(CN2CCN(c3ccc4nnc(C(F)(F)F)n4n3)CC2)cc1 [Example 115, 6-[4-[(4-propan-2-yloxyphenyl)methyl]piperazin-1-yl]-3-(trifluoromethyl)-[1,2,4]triazolo[4,3-b]pyridazine]",2.5
24,"FC(F)(F)Sc1cccc(CN2CCN(c3ccc4nnc(C(F)(F)F)n4n3)CC2)c1 [Example 116, 3-(trifluoromethyl)-6-[4-[[3-(trifluoromethylsulfanyl)phenyl]methyl]piperazin-1-yl]-[1,2,4]triazolo[4,3-b]pyridazine]",1.1
25,"FC(F)(F)c1nnc2ccc(N3CCN(Cc4ccc(-c5cccnc5)cc4)CC3)nn12 [Example 117, 6-[4-[(4-pyridin-3-ylphenyl)methyl]piperazin-1-yl]-3-(trifluoromethyl)-[1,2,4]triazolo[4,3-b]pyridazine]",1.7
26,"FC(F)(F)c1nnc2ccc(N3CCN(Cc4cccc(Br)c4)CC3)nn12 [Example 118, 6-[4-[(3-bromophenyl)methyl]piperazin-1-yl]-3-(trifluoromethyl)-[1,2,4]triazolo[4,3-b]pyridazine]",0.3
27,"FC(F)(F)c1nnc2ccc(N3CCN(Cc4cccc(Oc5ccc(Cl)cc5)c4)CC3)nn12 [Example 119, 6-[4-[[3-(4-chlorophenoxy)phenyl]methyl]piperazin-1-yl]-3-(trifluoromethyl)-[1,2,4]triazolo[4,3-b]pyridazine]",2.2
28,"COc1ccc(Oc2cccc(CN3CCN(c4ccc5nnc(C(F)(F)F)n5n4)CC3)c2)cc1 [Example 120, 6-[4-[[3-(4-methoxyphenoxy)phenyl]methyl]piperazin-1-yl]-3-(trifluoromethyl)-[1,2,4]triazolo[4,3-b]pyridazine]",1.7
29,"COC(=O)c1ccc(CN2CCN(c3ccc4nnc(C(F)(F)F)n4n3)CC2)cc1 [Example 121, methyl 4-[[4-[3-(trifluoromethyl)-[1,2,4]triazolo[4,3-b]pyridazin-6-yl]piperazin-1-yl]methyl]benzoate]",4.8
30,"CC(C)(C)c1ccc(CN2CCN(c3ccc4nnc(C(F)(F)F)n4n3)CC2)cc1 [Example 122, 6-[4-[(4-tert-butylphenyl)methyl]piperazin-1-yl]-3-(trifluoromethyl)-[1,2,4]triazolo[4,3-b]pyridazine]",4.3
